Measured values reported in patent US20240368133A1, “Compounds for the Treatment of Pain, in Particular, Neuropathic Pain, and/or Other Diseases or Disorders that are Associated with AT2R and/or AT2R Mediated Signaling” (Confo Therapeutics N.V., priority 2021, published 2024).

Key:
Assay type in all cases: in vitro ADME
[1] = Caco-2 permeability assay; settings: human; for recovery at 90 min, 10 µM / efflux ratio at 90 min, 10 µM: Caco-2, pH 7.4; for Papp A→B at 90 min, 10 µM: pH 7.4, Caco-2, AB
Procedure: Caco-2 cells were cultured in 75 cm^2 flasks to 80-90% confluence according to the ATCC and Millipore recommendations (Arena A. et al., 2003) in humidified atmosphere at 37° C. and 5% CO2. Cells were detached with Trypsin/EDTA solution and resuspended in the cell culture medium to a final concentration of 2×10^5 cells/ml. 500 μl of the cell suspension was added to each well of HTS 24-Multiwell Insert System and 1000 μl of prewarmed complete medium was added to each well of the feeder-plate. Caco-2 cells were incubated in Multiwell Insert System for 21 days before the transport experiments. The medium in filter plate and feeder tray was refreshed every other day. After 21 days of the cell growth, the integrity of the monolayer was verified by measuring the transepithelial electrical resistance (TEER) for every well using the Millicell-ERS system ohm meter. The final TEER values were within the range 150-600 Ω×cm^2 (Srinivasan B. et al., 2015) as required for the assay conditions. 24-well insert plate was removed from its feeder plate and placed in a new sterile 24-well transport analysis plate. The inserts were washed with PBS after medium aspiration. To determine the rate of compounds transport in apical (A)-to-basolateral (B) direction, 300 μL of the test compound dissolved in transport buffer at 10 μM (HBSS, 25 mM HEPES, pH=7.4) was added into the filter wells; 1000 μL of buffer (HBSS, 25 mM HEPES, pH=7.4) was added to transport analysis plate wells. Propranolol, Atenolol, Quinidine and Digoxin were used as reference compounds. The plates were incubated for 90 min at 37° C. under continuous shaking at 50 rpm. 75 μL aliquots were taken from the donor and receiver compartments for LC-MS/MS analysis. All samples were mixed with 2 volumes of acetonitrile followed by protein sedimentation by centrifuging at 10000 rpm for 10 minutes. Supernatants were analyzed using the HPLC system coupled with tandem mass spectrometer. The apparent permeability (Papp) was calculated for Caco-2 permeability assay using the following equation:
• VA=volume of transport buffer in acceptor well • Area=surface area of the insert (equals to effective growth area of the insert −0.31 sq.cm) • Time=time of the assay • [drug]acc=concentration of test compound in acceptor well • [drug]initial,d=initial concentration of test compound in a donor well • Papp is expressed in 10^−6 cm/sec.
The % recovery can be useful in interpreting the Caco-2 data. If the recovery is very low, this may indicate poor solubility, binding of the compound to the test plate materials, metabolism by the Caco-2 cells, or accumulation of the compound in the cell monolayer. The % recovery was calculated using the following equation:
• Vacc=volume of compound solution in acceptor well […] • Vd=volume of compound solution in […] • Cacc=concentration of test compound in acceptor well (μM) • Cinitial,d=initial concentration of test compound in a donor well (μM)

[2] = Plasma protein binding (equilibrium dialysis), dog; settings: for fraction unbound at 4 h, 5 µM: equilibrium dialysis, read-out: PPB (%), dog (converted); for recovery at 4 h, 5 µM: plasma (freshly thawed), PPB assay recovery
Procedure: Prior to the start of the experiment, dialysis membranes (membrane strips, MW cut-off 12-14 kDa, HTDialysis, Cat.NoJl 101) are soaked in deionized water for 60 min, transferred and left overnight in 20% EtOH. The day of experiment, a 10 mM stock solution of the compound in DMSO is diluted with a factor 10 in DMSO. This solution is further diluted in freshly thawed human, rat, mouse or dog plasma (BioIVT) with a final concentration of 5 μM and final DMSO concentration of 0.5%.
From this solution, an aliquot of 50 μL was taken and matrix matched with an equivalent volume of PBS for the recovery plate, after which 6 volumes of STOP solution were added to the recovery plate. For these recovery plates, no incubation is done.
Equilibrium Dialysis Device (96-well, model HTD96b, HTDialysis, Cat. No. #1006) is assembled according to manufacturer's instructions. Immediately after assembly, a volume of 100 μL of plasma (spiked with compound) is placed on one side of the well and another 100 μL of blank PBS buffer are added to the other side, respectively. Each compound is tested in duplicate. Acebutolol and Nicardipine are used as low and very high binding controls, except for the mouse, Caffeine is used as low binder instead Acebutolol. If the PPB values for these controls are not in the range determined by the historical data, the assay is not validated.
The plate is incubated for 4 h at 37° C. while shaking at 230 rpm. Thereafter, an aliquot of 50 μL is taken from each side of the well and matrix matched (mix of equal volumes of spiked plasma with blank PBS buffer and samples from buffer compartment with blank plasma). Matrix matched samples are further mixed with 3 volumes of STOP solution (acetonitrile/MeOH 2/1 with diclofenac as internal standard). After brief mixing and centrifugation (at 2400 rpm for 15 min, at +4° C.), the supernatant is filtered and transferred into new 96-well plates for analysis on LC-MS/MS (systems API4000).
The percentage of plasma protein bound compound and recovery were calculated using following equations:
with: • Cplasma=peak area of the compound in the plasma/peak area of the IS in the plasma • Cbuffer=peak area of the compound in the buffer/peak area of the IS in the buffer • ‘Concentration’ is the ratio between compound and IS peak areas
The recovery is a control, which allows to be sure that the compound has not a non-specific binding to the plates or is not stable in the plasma in these conditions:
with: • PBS=(ratio of the peak area of the compound/peak area of the IS) in the PBS compartment after 4 h • Plasma=(ratio of the peak area of the compound/peak area of IS) in the plasma compartment after 4 h • Recov=Recovery=ratio of the peak are of the compound I the well recovery/peak area of the IS in the well recovery at TO […]

[3] = Metabolic stability in hepatocytes, human; settings: pooled cryopreserved hepatocytes, read-out: Human Clint (μL/min/10^6 cells)

Row | SMILES | recovery at 90 min, 10 µM [1] | Papp A→B at 90 min, 10 µM [1] | fraction unbound at 4 h, 5 µM [2] | recovery at 4 h, 5 µM [2] | hepatocyte CLint at 1 µM [3] | efflux ratio at 90 min, 10 µM [1]
1 | CC(C)Cc1ccc(-c2nn[nH]n2)c(N2CCN(Cc3nc4ccccc4c(=O)[nH]3)CC2)c1 [Compound A-31, 2-[[4-[5-isobutyl-2-(2H-tetrazol-5-yl)phenyl]piperazin-1-yl]methyl]-3H-quinazolin-4-one] | 77% | 2.8 ×10⁻⁶ cm/s | – | – | – | –
2 | CC(C)Cc1ccc(-c2nn[nH]n2)c(N2CCN(Cc3cccnn3)CC2)c1 [Compound A-90, 3-[[4-[5-isobutyl-2-(2H-tetrazol-5-yl)phenyl]piperazin-1-yl]methyl]pyridazine] | 91% | < 3.4 ×10⁻⁶ cm/s | – | – | – | –
3 | CCC1CN(c2cc(CC(C)C)cc(F)c2-c2nn[nH]n2)CCN1Cc1cccnn1 (stereo not shown) [Compound A-178, 3-[[2-ethyl-4-[3-fluoro-5-isobutyl-2-(2H-tetrazol-5-yl)phenyl]piperazin-1-yl]methyl]pyridazine] | 94% | 1.2 ×10⁻⁶ cm/s | – | – | – | 7.2

The next lines start with results.

Row | recovery at 90 min, 10 µM [1] | Papp A→B at 90 min, 10 µM [1] | fraction unbound at 4 h, 5 µM [2] | recovery at 4 h, 5 µM [2] | hepatocyte CLint at 1 µM [3] | SMILES | efflux ratio at 90 min, 10 µM [1]
4 | 90% | 0.15 ×10⁻⁶ cm/s | 0.062 | 97% | < 2.9 µL/min/1e6 cells | CC(C)Cc1cc(F)c(-c2nn[nH]n2)c(N2CCN(Cc3cccnn3)[C@@H](C)C2)c1 [Compound A-174, 3-[[(2S)-4-[3-fluoro-5-isobutyl-2-(2H-tetrazol-5-yl)phenyl]-2-methyl-piperazin-1-yl]methyl]pyridazine] | 16
5 | – | – | 0.042 | 96% | 5.8 µL/min/1e6 cells | CC(C)Cc1cc(F)c(-c2nn[nH]n2)c(N2CCN(Cc3ccccn3)[C@@H](C)C2)c1 [Compound A-217, (2S)-4-[3-fluoro-5-isobutyl-2-(2H-tetrazol-5-yl)phenyl]-2-methyl-1-(2-pyridylmethyl)piperazine] | –
